In patent publication US8278304B2, “Substituted 4-hydroxypyrimidine-5-carboxamides” (Merck Sharp & Dohme Corp., priority 2008, dated 2012):

Target: T1, PHD2 (Homo sapiens, UniProt Q9GZT9)
T1 construct: FLAG-tagged full length PHD2 expressed in and purified from baculovirus-infected Sf9 cells; FLAG; made in house; host or cells: baculovirus-infected Sf9 cells
Assay: PHD2 / HIF-1α peptide hydroxylation assay, time resolved fluorescence (VHL complex detection)
Assay type: biochemical
Settings: FLAG-tagged full length PHD2; 0.2 μM 2-oxoglutarate, 0.5 μM HIF-1α peptide; read-out: PHD2 Activity (PHD2 binding activity expressed as IC50 (nM))
Experimental: To each well of a 96-well plate was added 1 μL of test compound in DMSO and 20 μl of assay buffer (50 mM Tris pH 7.4/0.01% Tween-20/0.1 mg/ml bovine serum albumin/10 μM ferrous sulfate/1 mM sodium ascorbate/20 μg/ml catalase) containing 0.15 μg/ml FLAG-tagged full length PHD2 expressed in and purified from baculovirus-infected Sf9 cells. After a 30 min preincubation at room temperature, the enzymatic reactions were initiated by the addition of 4 μL of substrates (final concentrations of 0.2 μM 2-oxoglutarate and 0.5 μM HIF-1α peptide biotinyl-[…]).

T1 sequence (Q9GZT9 whole entry): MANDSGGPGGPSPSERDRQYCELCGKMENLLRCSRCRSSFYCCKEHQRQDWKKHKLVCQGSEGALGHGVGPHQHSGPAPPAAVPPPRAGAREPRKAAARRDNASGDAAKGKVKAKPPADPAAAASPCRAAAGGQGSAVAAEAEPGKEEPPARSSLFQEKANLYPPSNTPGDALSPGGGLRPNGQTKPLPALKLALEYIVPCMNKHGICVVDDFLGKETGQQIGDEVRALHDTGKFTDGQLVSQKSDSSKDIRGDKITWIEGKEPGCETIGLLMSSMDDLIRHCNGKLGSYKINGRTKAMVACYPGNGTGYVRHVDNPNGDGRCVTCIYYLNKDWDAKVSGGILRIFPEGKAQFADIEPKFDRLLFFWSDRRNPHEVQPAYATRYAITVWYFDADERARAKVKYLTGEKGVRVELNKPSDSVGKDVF

| SMILES | IC50 |
| --- | --- |
| CC(NC(=O)c1cnc(-n2cccn2)nc1O)c1ccc(C(F)(F)F)nc1 (single isomer, unassigned) [Example 141, 4-hydroxy-2-(1H-pyrazol-1-yl)-N-{1-[6-(trifluoromethyl)pyridin-3-yl]ethyl}pyrimidine-5-carboxamide] | ≤ 10 nM |
| O=C(NC(c1ccccc1)c1ccc(C(F)(F)F)nc1)c1cnc(-n2cccn2)nc1O (single isomer, unassigned) [Example 142, 4-hydroxy-N-{phenyl[6-(trifluoromethyl)pyridin-3-yl]methyl}-2-(1H-pyrazol-1-yl)pyrimidine-5-carboxamide] | ≤ 10 nM |
| O=C(NC(c1ccccc1)c1ccc(C(F)(F)F)nc1)c1cnc(-n2cccn2)nc1O (single isomer, unassigned) [Example 143, 4-hydroxy-N-{phenyl[6-(trifluoromethyl)pyridin-3-yl]methyl}-2-(1H-pyrazol-1-yl)pyrimidine-5-carboxamide] | ≤ 10 nM |
| COc1ccc(C(NC(=O)c2cnc(-c3cccnn3)nc2O)c2nc(C)cs2)cc1 (single isomer, unassigned) [Example 144, 4-hydroxy-N-[(4-methoxyphenyl)(4-methyl-1,3-thiazol-2-yl)methyl]-2-(pyridazin-3-yl)pyrimidine-5-carboxamide] | ≤ 10 nM |
| COc1ccc(C(NC(=O)c2cnc(-c3cccnn3)nc2O)c2nc(C)cs2)cc1 (single isomer, unassigned) [Example 145, 4-hydroxy-N-[(4-methoxyphenyl)(4-methyl-1,3-thiazol-2-yl)methyl]-2-(pyridazin-3-yl)pyrimidine-5-carboxamide] | ≤ 10 nM |
| COc1ccc(C(NC(=O)c2cnc(-c3cccnn3)nc2O)c2ccc(C)nc2)cc1 (single isomer, unassigned) [Example 146, 4-hydroxy-N-[(4-methoxyphenyl)(6-methylpyridin-3-yl)methyl]-2-(pyridazin-3-yl)pyrimidine-5-carboxamide] | ≤ 10 nM |
| COc1ccc(C(NC(=O)c2cnc(-c3cccnn3)nc2O)c2cccc(C#N)c2)cc1 (single isomer, unassigned) [Example 147, N-[(3-cyanophenyl)(4-methoxyphenyl)methyl]-4-hydroxy-2-(pyridazin-3-yl)pyrimidine-5-carboxamide] | ≤ 10 nM |
| COc1ccc(C(NC(=O)c2cnc(-c3cccnn3)nc2O)c2cccc(C#N)c2)cc1 (single isomer, unassigned) [Example 148, N-[(3-cyanophenyl)(4-methoxyphenyl)methyl]-4-hydroxy-2-(pyridazin-3-yl)pyrimidine-5-carboxamide] | ≤ 10 nM |
| COc1ccc(C(NC(=O)c2cnc(-c3cccnn3)nc2O)c2cccc(C)n2)c(OC)c1 (single isomer, unassigned) [Example 149, N-[(2,4-dimethoxyphenyl)(6-methylpyridin-2-yl)methyl]-4-hydroxy-2-(pyridazin-3-yl)pyrimidine-5-carboxamide] | ≤ 10 nM |
| COc1ccc(C(NC(=O)c2cnc(-c3cccnn3)nc2O)c2ccc(C#N)cc2)cc1 (single isomer, unassigned) [Example 150, N-[(4-cyanophenyl)(4-methoxyphenyl)methyl]-4-hydroxy-2-(pyridazin-3-yl)pyrimidine-5-carboxamide] | ≤ 10 nM |
| COc1ccc(C(NC(=O)c2cnc(-c3cccnn3)nc2O)c2ccc(C#N)cc2)cc1 (single isomer, unassigned) [Example 151, N-[(4-cyanophenyl)(4-methoxyphenyl)methyl]-4-hydroxy-2-(pyridazin-3-yl)pyrimidine-5-carboxamide] | ≤ 10 nM |
| COc1ccc(C(NC(=O)c2cnc(-c3cccnn3)nc2O)c2ccc(OC(F)(F)F)cc2)cc1 (single isomer, unassigned) [Example 152, 4-hydroxy-N-{(4-methoxyphenyl)[4-(trifluoromethoxy)phenyl]methyl}-2-(pyradazin-3-yl)pyrimidine-5-carboxamide] | ≤ 10 nM |
| COc1ccc(C(NC(=O)c2cnc(-c3cccnn3)nc2O)c2ccc(C#N)cc2)c(OC)c1 (single isomer, unassigned) [Example 154, N-[(4-cyanophenyl)(2,4-dimethoxyphenyl)methyl]-4-hydroxy-2-(pyridazin-3-yl)pyrimidine-5-carboxamide] | ≤ 10 nM |
| COc1ccc(C(NC(=O)c2cnc(-c3cccnn3)nc2O)c2ccc(C#N)cc2)c(OC)c1 (single isomer, unassigned) [Example 155, N-[(4-cyanophenyl)(2,4-dimethoxyphenyl)methyl]-4-hydroxy-2-(pyridazin-3-yl)pyrimidine-5-carboxamide] | ≤ 10 nM |
| COc1ccc(C(NC(=O)c2cnc(-c3cccnn3)nc2O)c2ccc(O)cc2)cc1 (single isomer, unassigned) [Example 156, 4-hydroxy-N-[(4-hydroxyphenyl)(4-methoxyphenyl)methyl]-2-(pyridazin-3-yl)pyrimidine-5-carboxamide] | ≤ 10 nM |
| COc1ccc(C(NC(=O)c2cnc(-c3cccnn3)nc2O)c2ccc(O)cc2)cc1 (single isomer, unassigned) [Example 157, 4-hydroxy-N-[(4-hydroxyphenyl)(4-methoxyphenyl)methyl]-2-(pyridazin-3-yl)pyrimidine-5-carboxamide] | ≤ 10 nM |
| CC(C)(NC(=O)c1cnc(-c2cc(Br)ccn2)nc1O)c1ccccc1 [Example 1, 2-(4-Bromopyridin-2-yl)-4-hydroxy-N-(1-methyl-1-phenylethyl)pyrimidine-5-carboxamide] | 10 to 100 nM |
| O=C(O)c1ccc(-c2ncc(C(=O)NCc3ccc(F)cc3)c(O)n2)nc1 [Example 3, 6-(5-{[(4-Fluorobenzyl)amino]carbonyl}-4-hydroxypyrimidin-2-yl)nicotinic acid] | 10 to 100 nM |
| O=C(NC(c1ccc(O)cc1)c1ccc(O)cc1)c1cnc(-c2cccnn2)nc1O [Example 6, N-[bis(4-hydroxyphenyl)methyl]-4-hydroxy-2-ylpyridazin-3-ylpyrimidine-5-carboxamide] | ≤ 10 nM |
| O=C(NCc1ccc(F)cc1)c1cnc(-c2ccccn2)nc1O [Example 7, N-(4-fluorobenzyl)-4-hydroxy-2-pyridin-2-ylpyrimidine-5-carboxamide] | 100 to 1000 nM |
| O=C(NCc1ccc(Br)cc1)c1cnc(-n2cccn2)nc1O [Example 9, N-(4-bromobenzyl)-4-hydroxy-2-(1H-pyrazol-1-yl)pyrimidine-5-carboxamide] | ≤ 10 nM |

More lines, now with the values ahead:

| IC50 | SMILES |
| --- | --- |
| ≤ 10 nM | COCc1ccc(C(NC(=O)c2cnc(-c3cccnn3)nc2O)c2ccc(OC)cc2)cc1 (racemic) [Example 181] |
| ≤ 10 nM | CC(C)CC(NC(=O)c1cnc(-c2cccnn2)nc1O)c1ccc(C#N)cc1 (single isomer, unassigned) [Example 158, N-[1-(4-cyanophenyl)-3-methylbutyl]-4-hydroxy-2-(pyridazin-3-yl)pyrimidine-5-carboxamide] |
| 10 to 100 nM | CC(C)CC(NC(=O)c1cnc(-c2cccnn2)nc1O)c1ccc(C#N)cc1 (single isomer, unassigned) [Example 159, N-[1-(4-cyanophenyl)-3-methylbutyl]-4-hydroxy-2-(pyridazin-3-yl)pyrimidine-5-carboxamide] |
| 10 to 100 nM | COc1ccc(CC(NC(=O)c2cnc(-c3cccnn3)nc2O)c2ccc(C#N)cc2)cc1 (single isomer, unassigned) [Example 160, N-[1-(4-cyanophenyl)-2-(4-methoxyphenyl)ethyl]-4-hydroxy-2-(pyridazin-3-yl)pyrimidine-5-carboxamide] |
| ≤ 10 nM | COc1ccc(CC(NC(=O)c2cnc(-c3cccnn3)nc2O)c2ccc(C#N)cc2)cc1 (single isomer, unassigned) [Example 161, N-[1-(4-cyanophenyl)-2-(4-methoxyphenyl)ethyl]-4-hydroxy-2-(pyridazin-3-yl)pyrimidine-5-carboxamide] |
| 100 to 1000 nM | N#Cc1ccc(C(NC(=O)c2cnc(-c3cccnn3)nc2O)C2CCCCC2)cc1 (single isomer, unassigned) [Example 162, N-[(4-cyanophenyl)(cyclohexyl)methyl]-4-hydroxy-2-(pyridazin-3-yl)pyrimidine-5-carboxamide] |
| ≤ 10 nM | N#Cc1ccc(C(NC(=O)c2cnc(-c3cccnn3)nc2O)C2CCCCC2)cc1 (single isomer, unassigned) [Example 163, N-[(4-cyanophenyl)(cyclohexyl)methyl]-4-hydroxy-2-(pyridazin-3-yl)pyrimidine-5-carboxamide] |
| ≤ 10 nM | COc1ccc(C(NC(=O)c2cnc(-c3cccnn3)nc2O)c2ccc3c(c2)CCO3)cc1 (single isomer, unassigned) [Example 164, N-[2,3-dihydro-1-benzofuran-5-yl(4-methoxyphenyl)methyl]-4-hydroxy-2-(pyridazin-3-yl)pyrimidine-5-carboxamide] |
| ≤ 10 nM | COCc1ccc(C(NC(=O)c2cnc(-c3cccnn3)nc2O)c2ccc(OC)cc2)cc1 (single isomer, unassigned) [Example 182, 4-Hydroxy-N-[[4-(methoxymethyl)phenyl](4-methoxyphenyl)methyl]-2-pyridazin-3-ylpyrimidine-5-carboxamide] |
| ≤ 10 nM | COCc1ccc(C(NC(=O)c2cnc(-c3cccnn3)nc2O)c2ccc(OC)cc2)cc1 (single isomer, unassigned) [Example 183, 4-Hydroxy-N-[[4-(methoxymethyl)phenyl](4-methoxyphenyl)methyl]-2-pyridazin-3-ylpyrimidine-5-carboxamide] |
| ≤ 10 nM | COc1ccc(C(NC(=O)c2cnc(-c3cccnn3)nc2O)c2ccc(OC)nc2)cc1 (single isomer, unassigned) [Example 190] |
| ≤ 10 nM | COc1ccc(C(NC(=O)c2cnc(-c3cccnn3)nc2O)c2ccc(OC)nc2)cc1 (single isomer, unassigned) [Example 191] |
